According to PubChem BioAssay AID1645864 (Buhrlage Lab, Dana-Farber Cancer Institute and Novartis …, 2021):
Calls of active or inactive are those of the source.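 How the source made its calls: active means maximal inhibition of USP17 at or above 30% in the confirmation dose-response, a value not among the printed readouts; inactive means the rest.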

Biological target: Ubiquitin carboxyl-terminal hydrolase 17-like protein 5 (Homo sapiens) (UniProt A8MUK1)
Experiment: ubiquitin-specific protease 17 inhibitors, concentration series, biochemical, verification of primary actives (AID 1645864)
Conditions: purified USP17, ubiquitin-rhodamine cleavage fluorescence, 3 h

Chain of Ubiquitin carboxyl-terminal hydrolase 17-like protein 5 (Homo sapiens) (A8MUK1 whole entry, looked up): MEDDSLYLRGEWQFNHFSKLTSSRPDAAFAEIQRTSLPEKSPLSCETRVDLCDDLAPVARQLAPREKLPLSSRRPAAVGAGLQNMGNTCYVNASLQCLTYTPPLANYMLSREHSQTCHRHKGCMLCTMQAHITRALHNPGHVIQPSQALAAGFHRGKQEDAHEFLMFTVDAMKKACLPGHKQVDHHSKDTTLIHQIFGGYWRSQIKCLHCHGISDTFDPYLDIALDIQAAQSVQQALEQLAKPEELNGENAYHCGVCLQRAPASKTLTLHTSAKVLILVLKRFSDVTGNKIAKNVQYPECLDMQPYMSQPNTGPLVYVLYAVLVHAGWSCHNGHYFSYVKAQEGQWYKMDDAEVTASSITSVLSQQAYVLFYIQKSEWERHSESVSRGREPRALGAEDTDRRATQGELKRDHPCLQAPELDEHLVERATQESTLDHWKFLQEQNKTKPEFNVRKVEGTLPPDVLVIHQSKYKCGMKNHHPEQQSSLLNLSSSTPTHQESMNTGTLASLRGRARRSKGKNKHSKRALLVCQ

IC50	Structure (SMILES)
2.17 µM	Clc1cc2nc(N3CCN(c4ccccn4)CC3)c3nncn3c2cc1Cl
29.2 µM	COc1ccccc1CNC(=O)CCCn1c(=O)c2ccccc2n(CC(=O)N2CCN(c3ccccc3)CC2)c1=O
28.6 µM	Cc1ccc(NC(=O)c2cnc(N3CCOCC3)nc2)cc1F
40.6 µM	Cc1nn(-c2ccccc2)c(C)c1C(=O)OCC(=O)Nc1cccc(Br)c1
> 50 µM (inactive)	Cc1ccccc1Cn1cc(SCC(=O)Nc2ccc3c(c2)OCCO3)c2ccccc21
> 50 µM (inactive)	CCn1ccc2c(cc(C(=O)Nc3cccc(OC)c3)n2C)c1=O
25.2 µM	CC(C)NC(=O)CN1C(=O)CC(C)Sc2ccc(S(=O)(=O)N3CCCCC3)cc21 (configuration not stated)
5.77 µM	C[C@@H](C(=O)NCc1ccc(F)cc1)N1C(=O)N2CCc3c([nH]c4ccccc34)[C@@]2(C)C1=O
> 50 µM (inactive)	COc1cccc(N2CCN(C(=O)c3cc(NC(C)=O)cc4nc(C)ccc34)CC2)c1
> 50 µM (inactive)	Cc1cc(C)cc(-n2cnc3cc(C(=O)NCCC4=CCCCC4)ccc32)c1
11.1 µM	COc1c(O)cc(CC(=O)O)c(C(C)=O)c1O
25.4 µM	O=C(COc1ccc2oc3c(c2c1)CCCC3)Nc1ccccn1
> 50 µM (inactive)	O=C(CSc1nncc2ccccc12)Nc1ccc2c(c1)OCO2
27.2 µM	Cc1nc(C(=O)N[C@@H](C)C(=O)NCc2ccc3c(c2)OCO3)cc2c1[nH]c1ccccc12
9.15 µM	O=c1[nH]c(C2CCN(S(=O)(=O)c3ccc(S(=O)(=O)NC4CCCCC4)cc3)CC2)nc2c1nnn2Cc1c(Cl)cccc1Cl
> 50 µM (inactive)	CC(C)(C)C(=O)Nc1ccc(SCc2nnc(-c3ccccc3)o2)cc1
> 50 µM (inactive)	CO/C=C/C(=O)c1cc2cnc3c(=N)cc(NC(C)=O)c([nH]1)c23
0.49 µM	CC(=O)c1cc2c(=O)c3c(C(=O)O)c(O)c(O)cc3oc2c(C(C)=O)c1-c1coc2cc(O)c(O)c(C(=O)O)c2c1=O
3.32 µM	O=C(/C=C/C=C/C=C/C1CCCCC1)NC1=C[C@@](O)(/C=C/C=C/C=C/C(=O)NC2=C(O)CCC2=O)[C@@H]2O[C@@H]2C1=O
> 50 µM (inactive)	CCc1c(Cl)c(O)c(Cl)c(O)c1C(=O)O[C@H]1C(C)O[C@@H](OC/C2=C\C=C\CC(O)/C(C)=C/C(CC)C(O[C@@H]3OC(C)(C)[C@H](O)C(OC(=O)C(C)C)[C@@H]3O)/C(C)=C/C(C)=C/CC(C(C)O)OC2=O)[C@@H](OC)C1O (some centres not stated)
> 50 µM (inactive)	Cc1cc(C(=O)Nc2cc(C)n(Cc3ccc(Cl)cc3)n2)no1
> 50 µM (inactive)	COc1cccc2cc(C(=O)Nc3ccc4c(c3)OCCO4)oc12
> 50 µM (inactive)	COc1ccc(CCNC(=O)c2cc3ccccc3s2)cc1OC
> 50 µM (inactive)	Cn1ccc2c(cc(C(=O)NCCC3=CCCCC3)n2C)c1=O

IC50	Structure (SMILES)
2.04 µM	CSc1cccc(NC(=O)COc2cccc3ccccc23)c1
44.6 µM	Cc1ccc(Nc2nc(NCCc3ccccc3)nc3c2cnn3C)cc1
> 50 µM (inactive)	COc1ccc(-c2cc(-c3nnc(CSc4nc5ccccc5n4C)o3)c3ccccc3n2)cc1OC
4.19 µM	c1csc(-c2nc(Nc3ccc4c(c3)CCC4)c3ccccc3n2)c1
45.6 µM	Cc1noc(-c2cc(=O)n(CC(=O)NCc3ccccc3)c3ccccc23)n1
3.29 µM	O=C(NCc1ccc(-c2nc3cnccc3o2)cc1)c1cc2ccccc2o1
18.2 µM	Cc1cc(C)cc(N(CCC(=O)Nc2ccc(N3CCOCC3)cc2)S(=O)(=O)c2ccc(Cl)cc2)c1
38.4 µM	O=C(Nc1cc(F)ccc1F)c1ccn(COc2ccc(F)c(Cl)c2)n1
34.5 µM	COc1ccc2[nH]c3c(c2c1)CCN1C(=O)N(c2ccccc2C(=O)NCc2ccccc2)C(=O)[C@]31C
> 50 µM (inactive)	Cc1nc(-c2ccc3c(c2)nnn3CCN2CCOCC2)no1
> 50 µM (inactive)	O=C1N(Cc2ccc(F)cc2)CCN1c1ccc2c(c1)CCC2
> 50 µM (inactive)	Cc1ccc2c(c1C)NC(=O)[C@]21[C@@H]2C(=O)N(c3cccc(Cl)c3)C(=O)[C@@H]2[C@@H]2CCCN21
2.06 µM	CC1OC2CC(O)C1(O)C1=C2C(O)=C(C(N)=O)C(=N)C1=O (configuration not stated)
> 50 µM (inactive)	Cc1ccccc1NC(=O)c1ccc(N2CCCCC2)nn1
27.4 µM	CCc1ccc(-c2nc(SCC(=O)Nc3ccc4[nH]c(=O)[nH]c4c3)n[nH]2)cc1
> 50 µM (inactive)	C=C(NC(=O)C(=C)NC(=O)c1csc(C2=N[C@@H]3c4csc(n4)[C@H]4NC(=O)c5csc(n5)[C@H]([C@](C)(O)[C@@H](C)O)NC(=O)[C@H]5CSC(=N5)/C(=C/C)NC(=O)C([C@@H](C)O)NC(=O)c5csc(n5)C3(CC2)NC(=O)[C@H](C)NC(=O)C(=C)NC(=O)[C@H](C)NC(=O)C([C@@H](C)CC)N[C@@H]2C=Cc3c(C(C)O)cc(nc3[C@H]2O)C(=O)OC4C)n1)C(N)=O (some centres not stated)
42.5 µM	CCOc1ccc(-n2c(SCC(=O)N3CC(=O)Nc4ccccc43)nnc2-c2ccc(OC)cc2)cc1
32.8 µM	O=C(CN1C(=O)NC2(CCCCC2)C1=O)Nc1ccc([N+](=O)[O-])cc1
5.08 µM	COC(=O)c1ccc2c(=O)n(CCCCCC(=O)NCCc3ccc(S(N)(=O)=O)cc3)c(=O)[nH]c2c1
> 50 µM (inactive)	CC(C)c1nc2sc3c(N(CCO)CCO)ncnc3c2c2c1COC(C)(C)C2
2.35 µM	CC1(C)Cc2c(sc3nc(Cc4ccccc4)nc(SCC(=O)Nc4ccccc4)c23)CO1
9.3 µM	COc1ccc(/C=C/C(=O)Nc2cccc(S(=O)(=O)Nc3ccccc3Cl)c2)c(OC)c1
42.9 µM	COc1cc(-c2cc(C(=O)Nc3cc(C)[nH]n3)c3ccccc3n2)cc(OC)c1OC
